# Laboratory results taken from the kinase profiling compilation of Christmann-Franck et al. (2016).
# Columns and labels:
# Test in all cases: radiometric filter-binding kinase assay, Kinase HotSpot
# Conditions in all cases: compound 0.5 µM; ATP 10 µM
# [1] = target: ABL1 (human) (UniProt P00519)
# [2] = target: AKT2 (human) (UniProt P31751)
# [3] = target: CDK1 CCNB1 (human) (UniProt P06493+P14635)
# [4] = target: CDK2 CCNE1 (human) (UniProt P24941+P24864)
# [5] = target: CDK9 CCNT1 (human) (UniProt P50750+O60563)
# [6] = target: CSK (human) (UniProt P41240)
# [7] = target: DSTYK (human) (UniProt Q6XUX3)
# [8] = target: DYRK4 (human) (UniProt Q9NR20)
# [9] = target: EPHA2 (human) (UniProt P29317)
# [10] = target: EPHA4 (human) (UniProt P54764)
# [11] = target: FYN (human) (UniProt P06241)
# [12] = target: GSG2 (human) (UniProt Q8TF76)
# [13] = target: IGF1R (human) (UniProt P08069)
# [14] = target: JAK2 JH1 JH2 (human) (UniProt O60674)
# [15] = target: LCK (human) (UniProt P06239)
# [16] = target: LIMK1 (human) (UniProt P53667)
# [17] = target: LRRK2 (human) (UniProt Q5S007)
# [18] = target: MAP3K10 (human) (UniProt Q02779)
# [19] = target: MAP3K11 (human) (UniProt Q16584)
# [20] = target: MAP4K5 (human) (UniProt Q9Y4K4)
# [21] = target: MAPKAPK2 (human) (UniProt P49137)
# [22] = target: PAK2 (human) (UniProt Q13177)
# [23] = target: PBK (human) (UniProt Q96KB5)
# [24] = target: PHKG2 (human) (UniProt P15735)
# [25] = target: PKN1 (human) (UniProt Q16512)
# [26] = target: PRKCB1 (human) (UniProt P05771)
# [27] = target: PRKCE (human) (UniProt Q02156)
# [28] = target: RAF1 (human) (UniProt P04049)
# [29] = target: ROCK2 (human) (UniProt O75116)
# [30] = target: RPS6KA3 KD1 KD2 (human) (UniProt P51812)
# [31] = target: RPS6KA6 KD1 KD2 (human) (UniProt Q9UK32)
# [32] = target: STK10 (human) (UniProt O94804)
# [33] = target: STK11 (human) (UniProt Q15831)
# [34] = target: STK3 (human) (UniProt Q13188)
# [35] = target: STK39 (human) (UniProt Q9UEW8)
# [36] = target: TAOK1 (human) (UniProt Q7L7X3)
# [37] = target: TGFBR1 (human) (UniProt P36897)
# [38] = target: TXK (human) (UniProt P42681)
# [39] = target: WNK3 (human) (UniProt Q9BYP7)
# [40] = target: ZAP70 (human) (UniProt P43403)
# [41] = target: PDPK1 (human) (UniProt O15530)
# Sequence of RAF1 (human) (P04049 whole entry, looked up): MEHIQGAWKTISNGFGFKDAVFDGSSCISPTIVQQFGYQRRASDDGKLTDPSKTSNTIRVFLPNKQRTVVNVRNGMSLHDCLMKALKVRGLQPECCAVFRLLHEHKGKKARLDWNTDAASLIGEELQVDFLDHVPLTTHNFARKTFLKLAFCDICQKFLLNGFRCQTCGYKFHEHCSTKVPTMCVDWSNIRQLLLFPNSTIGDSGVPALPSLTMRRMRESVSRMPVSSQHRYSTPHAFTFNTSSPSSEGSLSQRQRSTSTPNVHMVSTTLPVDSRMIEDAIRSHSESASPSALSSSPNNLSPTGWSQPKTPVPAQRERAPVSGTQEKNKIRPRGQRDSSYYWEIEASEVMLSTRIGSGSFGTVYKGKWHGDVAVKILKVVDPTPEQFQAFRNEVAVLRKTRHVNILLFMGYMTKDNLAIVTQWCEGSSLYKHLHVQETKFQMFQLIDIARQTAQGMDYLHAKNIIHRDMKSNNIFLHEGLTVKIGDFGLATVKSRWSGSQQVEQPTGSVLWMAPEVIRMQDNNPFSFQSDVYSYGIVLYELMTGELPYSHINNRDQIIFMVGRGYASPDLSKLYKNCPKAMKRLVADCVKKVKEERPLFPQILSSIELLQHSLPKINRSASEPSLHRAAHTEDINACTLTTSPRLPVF
# Sequence of EPHA2 (human) (P29317 whole entry, looked up): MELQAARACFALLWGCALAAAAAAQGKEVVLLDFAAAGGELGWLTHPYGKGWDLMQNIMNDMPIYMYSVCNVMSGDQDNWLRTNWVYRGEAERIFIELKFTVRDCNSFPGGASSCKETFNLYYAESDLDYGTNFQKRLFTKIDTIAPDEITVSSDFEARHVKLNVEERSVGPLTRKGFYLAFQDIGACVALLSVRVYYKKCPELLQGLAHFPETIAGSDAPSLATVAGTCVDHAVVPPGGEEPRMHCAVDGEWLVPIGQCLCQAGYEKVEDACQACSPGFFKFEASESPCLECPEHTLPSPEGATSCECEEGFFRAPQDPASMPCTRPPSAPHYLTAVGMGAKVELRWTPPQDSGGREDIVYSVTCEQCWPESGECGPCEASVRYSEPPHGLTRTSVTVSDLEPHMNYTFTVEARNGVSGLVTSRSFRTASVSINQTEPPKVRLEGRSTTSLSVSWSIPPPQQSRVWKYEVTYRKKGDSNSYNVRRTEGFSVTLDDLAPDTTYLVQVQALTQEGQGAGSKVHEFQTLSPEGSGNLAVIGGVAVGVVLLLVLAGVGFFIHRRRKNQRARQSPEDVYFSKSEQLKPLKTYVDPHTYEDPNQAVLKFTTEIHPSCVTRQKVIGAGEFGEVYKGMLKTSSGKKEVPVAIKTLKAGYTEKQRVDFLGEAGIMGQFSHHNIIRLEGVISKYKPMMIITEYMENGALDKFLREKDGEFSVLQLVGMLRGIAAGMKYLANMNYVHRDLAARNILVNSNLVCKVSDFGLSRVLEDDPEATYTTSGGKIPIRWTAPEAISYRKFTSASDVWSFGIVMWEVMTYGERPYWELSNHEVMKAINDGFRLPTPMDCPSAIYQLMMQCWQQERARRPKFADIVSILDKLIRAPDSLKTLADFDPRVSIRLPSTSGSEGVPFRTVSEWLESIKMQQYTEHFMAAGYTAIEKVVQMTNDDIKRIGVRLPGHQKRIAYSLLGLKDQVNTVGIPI
# Sequence of TXK (human) (P42681 whole entry, looked up): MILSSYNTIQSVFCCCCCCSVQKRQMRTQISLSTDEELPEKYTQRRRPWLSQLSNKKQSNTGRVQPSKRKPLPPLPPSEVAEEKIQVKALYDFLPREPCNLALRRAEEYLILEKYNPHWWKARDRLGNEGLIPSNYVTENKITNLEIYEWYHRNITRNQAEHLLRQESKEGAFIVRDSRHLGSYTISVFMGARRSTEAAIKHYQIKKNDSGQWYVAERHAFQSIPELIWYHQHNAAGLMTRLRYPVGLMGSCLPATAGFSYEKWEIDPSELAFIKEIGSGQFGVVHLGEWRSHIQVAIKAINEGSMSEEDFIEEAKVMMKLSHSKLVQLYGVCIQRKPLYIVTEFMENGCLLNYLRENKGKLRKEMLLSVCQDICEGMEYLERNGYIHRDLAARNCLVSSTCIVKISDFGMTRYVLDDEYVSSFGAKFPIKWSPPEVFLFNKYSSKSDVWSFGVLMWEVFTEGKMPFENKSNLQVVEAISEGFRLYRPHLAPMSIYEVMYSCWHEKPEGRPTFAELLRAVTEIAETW
# Sequence of STK11 (human) (Q15831 whole entry, looked up): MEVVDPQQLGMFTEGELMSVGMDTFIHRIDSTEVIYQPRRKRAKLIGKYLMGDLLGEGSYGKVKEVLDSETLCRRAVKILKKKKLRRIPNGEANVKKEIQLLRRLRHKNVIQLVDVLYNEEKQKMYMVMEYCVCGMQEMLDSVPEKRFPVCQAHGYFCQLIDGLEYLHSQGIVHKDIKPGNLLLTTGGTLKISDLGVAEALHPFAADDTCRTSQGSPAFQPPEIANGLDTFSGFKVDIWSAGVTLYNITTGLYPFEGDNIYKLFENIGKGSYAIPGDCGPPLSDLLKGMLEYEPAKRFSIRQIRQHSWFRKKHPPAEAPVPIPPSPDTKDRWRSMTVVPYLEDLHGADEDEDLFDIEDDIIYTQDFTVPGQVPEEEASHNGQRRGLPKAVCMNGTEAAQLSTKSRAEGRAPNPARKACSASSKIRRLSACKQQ
# Sequence of TAOK1 (human) (Q7L7X3 whole entry, looked up): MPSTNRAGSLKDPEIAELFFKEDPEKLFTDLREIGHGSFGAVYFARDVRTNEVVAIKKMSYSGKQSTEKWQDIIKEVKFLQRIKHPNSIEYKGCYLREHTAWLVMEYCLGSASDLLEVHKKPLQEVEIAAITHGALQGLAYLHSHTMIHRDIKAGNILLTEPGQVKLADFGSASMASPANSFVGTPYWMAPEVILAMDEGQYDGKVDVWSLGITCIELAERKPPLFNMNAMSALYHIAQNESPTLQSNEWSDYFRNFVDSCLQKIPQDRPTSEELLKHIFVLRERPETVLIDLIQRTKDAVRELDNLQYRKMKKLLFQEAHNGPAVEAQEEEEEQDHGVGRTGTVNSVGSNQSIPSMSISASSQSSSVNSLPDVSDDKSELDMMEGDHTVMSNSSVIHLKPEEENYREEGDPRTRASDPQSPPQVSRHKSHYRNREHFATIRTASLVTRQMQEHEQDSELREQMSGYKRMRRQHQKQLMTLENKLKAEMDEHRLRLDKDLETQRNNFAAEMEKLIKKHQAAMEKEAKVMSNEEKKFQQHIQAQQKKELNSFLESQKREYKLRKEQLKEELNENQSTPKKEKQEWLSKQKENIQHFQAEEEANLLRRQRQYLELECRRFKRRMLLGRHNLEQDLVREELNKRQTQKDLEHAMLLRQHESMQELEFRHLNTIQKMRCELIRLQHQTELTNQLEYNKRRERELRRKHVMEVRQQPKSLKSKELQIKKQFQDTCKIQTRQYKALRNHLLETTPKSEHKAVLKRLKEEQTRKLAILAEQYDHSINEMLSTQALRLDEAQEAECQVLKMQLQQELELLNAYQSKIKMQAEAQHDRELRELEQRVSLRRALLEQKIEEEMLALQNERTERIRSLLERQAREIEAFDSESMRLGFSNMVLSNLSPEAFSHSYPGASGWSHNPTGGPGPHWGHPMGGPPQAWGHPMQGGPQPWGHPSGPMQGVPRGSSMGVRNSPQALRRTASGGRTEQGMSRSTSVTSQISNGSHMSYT
# Sequence of ZAP70 (human) (P43403 whole entry, looked up): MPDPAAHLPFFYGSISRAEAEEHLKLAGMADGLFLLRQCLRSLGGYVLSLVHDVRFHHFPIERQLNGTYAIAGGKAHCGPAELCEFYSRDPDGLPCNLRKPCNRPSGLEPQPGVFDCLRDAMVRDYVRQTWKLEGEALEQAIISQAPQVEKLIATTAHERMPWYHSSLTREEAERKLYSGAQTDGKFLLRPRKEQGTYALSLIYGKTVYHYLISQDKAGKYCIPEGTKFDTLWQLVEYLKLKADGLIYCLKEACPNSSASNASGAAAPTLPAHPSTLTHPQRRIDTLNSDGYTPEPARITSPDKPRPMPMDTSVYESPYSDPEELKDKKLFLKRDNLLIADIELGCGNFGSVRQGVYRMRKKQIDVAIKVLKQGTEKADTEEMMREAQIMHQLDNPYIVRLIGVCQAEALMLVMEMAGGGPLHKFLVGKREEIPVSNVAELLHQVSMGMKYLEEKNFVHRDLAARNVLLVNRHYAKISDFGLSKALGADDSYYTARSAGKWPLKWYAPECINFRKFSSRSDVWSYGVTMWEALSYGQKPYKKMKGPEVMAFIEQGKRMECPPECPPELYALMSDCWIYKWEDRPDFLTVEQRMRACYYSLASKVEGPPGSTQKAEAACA
# Sequence of PRKCE (human) (Q02156 whole entry, looked up): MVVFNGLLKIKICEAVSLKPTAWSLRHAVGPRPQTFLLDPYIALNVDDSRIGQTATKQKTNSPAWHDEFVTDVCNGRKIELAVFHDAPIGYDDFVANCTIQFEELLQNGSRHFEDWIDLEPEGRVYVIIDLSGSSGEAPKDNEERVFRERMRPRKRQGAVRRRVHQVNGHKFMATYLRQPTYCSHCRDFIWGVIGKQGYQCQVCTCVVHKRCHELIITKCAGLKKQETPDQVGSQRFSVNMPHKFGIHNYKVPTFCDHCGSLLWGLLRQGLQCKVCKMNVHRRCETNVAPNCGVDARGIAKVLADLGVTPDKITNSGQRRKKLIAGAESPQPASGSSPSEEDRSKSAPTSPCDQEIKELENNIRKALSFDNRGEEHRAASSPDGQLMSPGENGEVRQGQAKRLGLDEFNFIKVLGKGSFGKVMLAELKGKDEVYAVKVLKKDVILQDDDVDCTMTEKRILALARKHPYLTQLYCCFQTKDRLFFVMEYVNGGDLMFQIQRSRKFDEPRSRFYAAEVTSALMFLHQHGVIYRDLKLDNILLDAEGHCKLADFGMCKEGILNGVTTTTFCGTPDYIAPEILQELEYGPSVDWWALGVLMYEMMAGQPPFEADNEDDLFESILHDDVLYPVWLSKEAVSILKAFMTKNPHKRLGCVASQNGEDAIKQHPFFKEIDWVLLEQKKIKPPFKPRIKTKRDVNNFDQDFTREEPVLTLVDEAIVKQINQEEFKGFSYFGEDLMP
compound,measurement,setting,value
CN(C)S(=O)(=O)c1ccc2c(c1)/C(=C/c1cc3c([nH]1)CCCC3)C(=O)N2,residual activity,[1],57.3%
same,residual activity,[2],105%
same,residual activity,[3],75.4%
same,residual activity,[4],85.5%
same,residual activity,[5],95.9%
same,residual activity,[6],93.1%
same,residual activity,[7],96%
same,residual activity,[8],98.2%
same,residual activity,[9],96.5%
same,residual activity,[10],91.3%
same,residual activity,[11],33.1%
same,residual activity,[12],116%
same,residual activity,[13],89.5%
same,residual activity,[14],46.1%
same,residual activity,[15],34.7%
same,residual activity,[16],60.7%
same,residual activity,[17],1.78%
same,residual activity,[18],99.1%
same,residual activity,[19],57.4%
same,residual activity,[20],3.08%
same,residual activity,[21],101%
same,residual activity,[22],92.5%
same,residual activity,[23],99.7%
same,residual activity,[24],78.8%
same,residual activity,[25],91.2%
same,residual activity,[26],106%
same,residual activity,[27],94.6%
same,residual activity,[28],97.7%
same,residual activity,[29],88.2%
same,residual activity,[30],70.1%
same,residual activity,[31],67.4%
same,residual activity,[32],9.53%
same,residual activity,[33],90.4%
same,residual activity,[34],24.3%
same,residual activity,[35],99.5%
same,residual activity,[36],85.8%
same,residual activity,[37],95.9%
same,residual activity,[38],96%
same,residual activity,[39],96.5%
same,residual activity,[40],90%
O=C(c1cc2cc(O)ccc2[nH]1)c1cc2cc(O)ccc2[nH]1,residual activity,[1],27.8%
same,residual activity,[2],104%
same,residual activity,[3],60.5%
same,residual activity,[4],65%
same,residual activity,[5],76.6%
same,residual activity,[6],106%
same,residual activity,[7],95.5%
same,residual activity,[8],99.7%
same,residual activity,[9],101%
same,residual activity,[10],109%
same,residual activity,[11],28.8%
same,residual activity,[12],34.8%
same,residual activity,[13],103%
same,residual activity,[14],95.6%
same,residual activity,[15],52%
same,residual activity,[16],87.9%
same,residual activity,[17],87.2%
same,residual activity,[18],91.7%
same,residual activity,[19],24.5%
same,residual activity,[20],28.7%
same,residual activity,[21],103%
same,residual activity,[22],97%
same,residual activity,[23],100%
same,residual activity,[41],97.2%
same,residual activity,[24],105%
same,residual activity,[25],76.3%
same,residual activity,[26],90.4%
same,residual activity,[27],119%
same,residual activity,[28],104%
same,residual activity,[29],92.9%
same,residual activity,[30],37.7%
same,residual activity,[31],26.7%
same,residual activity,[32],70.3%
same,residual activity,[33],101%
same,residual activity,[34],41.4%
same,residual activity,[35],97.6%
same,residual activity,[36],85.6%
same,residual activity,[37],93.4%
same,residual activity,[38],74.9%
same,residual activity,[39],74.6%
same,residual activity,[40],101%
O=C1c2ccccc2-c2nc3nnnn3nc21,residual activity,[1],89.7%
same,residual activity,[2],55.8%
same,residual activity,[3],48%
same,residual activity,[4],80.6%
same,residual activity,[5],97%
same,residual activity,[6],84.8%
same,residual activity,[7],81.5%
same,residual activity,[8],88.5%
same,residual activity,[9],100%
same,residual activity,[10],61.1%
same,residual activity,[11],76.2%
same,residual activity,[12],79.2%
same,residual activity,[13],91.1%
same,residual activity,[14],82.6%
same,residual activity,[15],70.5%
same,residual activity,[16],65%
same,residual activity,[17],85.6%
same,residual activity,[18],94.6%
same,residual activity,[19],69%
same,residual activity,[20],78.7%
same,residual activity,[21],104%
same,residual activity,[22],96.2%
same,residual activity,[23],64.5%
same,residual activity,[41],79%
same,residual activity,[24],96.1%
same,residual activity,[25],97.5%
same,residual activity,[26],83.1%
same,residual activity,[27],99%
same,residual activity,[28],76.1%
same,residual activity,[29],81.7%
same,residual activity,[30],75.1%
same,residual activity,[31],62.3%
same,residual activity,[32],84.3%
same,residual activity,[33],99.1%
same,residual activity,[35],89.2%
same,residual activity,[36],90.2%
same,residual activity,[37],107%
same,residual activity,[38],90.8%
same,residual activity,[39],116%
same,residual activity,[40],68.2%
CC(C)(C)c1cc(C=C(C#N)C#N)cc(Br)c1O,residual activity,[1],59.8%
same,residual activity,[2],97.7%
same,residual activity,[3],72.6%
same,residual activity,[4],77.6%
same,residual activity,[5],95.4%
same,residual activity,[6],106%
same,residual activity,[7],105%
same,residual activity,[8],98.2%
same,residual activity,[9],105%
same,residual activity,[10],94.7%
same,residual activity,[11],67.2%
same,residual activity,[12],67.2%
same,residual activity,[13],96.6%
same,residual activity,[14],107%
same,residual activity,[15],87.8%
same,residual activity,[16],98.5%
same,residual activity,[17],109%
same,residual activity,[18],100%
same,residual activity,[19],97.4%
same,residual activity,[20],95.8%
same,residual activity,[21],92.3%
same,residual activity,[22],96.5%
same,residual activity,[23],102%
same,residual activity,[41],102%
same,residual activity,[24],106%
same,residual activity,[25],94.5%
same,residual activity,[26],102%
same,residual activity,[27],108%
same,residual activity,[28],104%
same,residual activity,[29],95.6%
same,residual activity,[30],92.2%
same,residual activity,[31],101%
same,residual activity,[32],95.4%
same,residual activity,[33],85.2%
same,residual activity,[35],87.6%
same,residual activity,[36],97.9%
same,residual activity,[37],103%
same,residual activity,[38],108%
same,residual activity,[39],106%
same,residual activity,[40],91.6%
CO[C@@H]1[C@H](N(C)C(=O)c2ccccc2)C[C@H]2O[C@]1(C)n1c3ccccc3c3c4c(c5c6ccccc6n2c5c31)C(=O)NC4,residual activity,[1],82.7%
same,residual activity,[4],81.2%
same,residual activity,[5],64.2%
same,residual activity,[6],55.1%
same,residual activity,[8],96.4%
same,residual activity,[9],92.3%
same,residual activity,[10],96.9%
same,residual activity,[11],34%
same,residual activity,[12],70.2%
same,residual activity,[14],8.94%
same,residual activity,[15],19.8%
same,residual activity,[16],19.6%
same,residual activity,[17],8.46%
same,residual activity,[18],3.15%
same,residual activity,[19],1.38%
same,residual activity,[20],7.01%
same,residual activity,[21],97.8%
same,residual activity,[22],66.6%
same,residual activity,[41],21.8%
same,residual activity,[24],79.7%
same,residual activity,[25],1.37%
same,residual activity,[27],10.7%
same,residual activity,[28],114%
same,residual activity,[29],80.9%
same,residual activity,[30],3.19%
same,residual activity,[31],1.15%
same,residual activity,[32],19.3%
same,residual activity,[34],1.93%
same,residual activity,[35],96%
same,residual activity,[36],60.8%
same,residual activity,[37],98.7%
same,residual activity,[38],71.7%
same,residual activity,[39],91.4%
same,residual activity,[40],65.4%
